In US8435978B2, “Substituted sulfonamide compounds” (Gruenenthal GmbH, priority 2006, dated 2013):
Where a name gives a salt, the structure may show the parent alone.

Tests used:
human B1R receptor = biological target: T1, human B1R receptor (Homo sapiens, UniProt P46663); experiment: Functional study on the bradykinin receptor 1 (B1R), FLIPR Ca2+ assay, hB1R cells; assay type: cell-based; conditions: agonist Lys-Des-Arg9-bradykinin 0.5 nM, % inhibition compared with the maximum achievable inhibition; for inhibition at 10 µM: CHO-K1, test substance 10 μM, read-out: B1R Antagonism, human [10 μM] % Inhibition; for B1R Antagonism, human [10 μM] % Inhibition: test substance 10 μM, hB1R CHO K1 cells
T1 construct: host or cells: CHO K1 cells (Chinese hamster ovary), stably transfected
T1 sequence (P46663 1-353): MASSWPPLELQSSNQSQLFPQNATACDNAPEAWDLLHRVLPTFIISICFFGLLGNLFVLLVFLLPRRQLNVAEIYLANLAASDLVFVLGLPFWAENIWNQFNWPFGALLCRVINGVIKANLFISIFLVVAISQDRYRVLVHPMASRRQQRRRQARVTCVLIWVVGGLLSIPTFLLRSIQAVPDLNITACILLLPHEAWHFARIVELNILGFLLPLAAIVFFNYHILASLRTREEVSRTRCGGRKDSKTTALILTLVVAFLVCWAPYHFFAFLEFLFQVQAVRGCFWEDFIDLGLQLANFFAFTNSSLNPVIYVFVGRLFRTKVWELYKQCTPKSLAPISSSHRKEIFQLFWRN
How it was run: (§1)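 FLIPR Ca2+ assay in recombinant CHO K1 cells (human or rat B1R), Fluo-4 dye; 10 μM compound, 10 min, then EC-level agonist per species (0.5 nM Lys-Des-Arg9-BK human / 100 nM Des-Arg9-BK rat). Output: % inhibition vs maximum.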

B1R receptor of the rat = biological target: T2, B1R receptor of the rat (Rattus norvegicus, UniProt P97583); experiment: Functional study on the bradykinin receptor 1 (B1R), FLIPR Ca2+ assay, rB1R cells; assay type: cell-based; conditions: agonist Des-Arg9-bradykinin 100 nM, % inhibition compared with the maximum achievable inhibition; for inhibition at 10 µM: CHO-K1, test substance 10 μM, read-out: B1R Antagonism, rat [10 μM] % Inhibition; for B1R Antagonism, rat [10 μM] % Inhibition: test substance 10 μM, rB1R CHO K1 cells
T2 construct: host or cells: CHO K1 cells (Chinese hamster ovary), stably transfected
T2 sequence (P97583 1-337): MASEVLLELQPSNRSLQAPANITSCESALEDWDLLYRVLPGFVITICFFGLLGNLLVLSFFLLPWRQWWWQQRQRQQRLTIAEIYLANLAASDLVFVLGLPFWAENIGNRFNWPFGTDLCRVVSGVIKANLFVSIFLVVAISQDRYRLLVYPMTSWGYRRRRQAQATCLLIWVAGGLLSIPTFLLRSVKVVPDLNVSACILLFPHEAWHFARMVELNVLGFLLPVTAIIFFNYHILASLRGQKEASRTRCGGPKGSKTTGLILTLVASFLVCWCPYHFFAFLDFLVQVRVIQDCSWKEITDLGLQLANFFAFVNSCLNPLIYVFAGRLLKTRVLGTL
How it was run: as §1

Row | Compound | inhibition at 10 µM (human B1R receptor) [%] | inhibition at 10 µM (B1R receptor of the rat) [%] | B1R Antagonism, human [10 μM] % Inhibition (human B1R receptor) [%] | B1R Antagonism, rat [10 μM] % Inhibition (B1R receptor of the rat) [%]
1 | O=C(COCC1CCCCN1S(=O)(=O)c1ccc(Cl)c(Cl)c1)N1CCN(CCN2CCCCC2)CC1 (stereo not drawn) [Example 42, 2-((1-(3,4-dichlorophenylsulfonyl)piperidin-2-yl)methoxy)-1-(4-(2-(piperidin-1-yl)-ethyl)piperazin-1-yl)ethanone] | 70.6 | 57.9 | – | –
2 | CN(C)c1ccc(C2CCCCCN2C(=O)COCC2CCCCN2S(=O)(=O)c2cccc3ccccc23)cc1 (stereo not drawn) [Example 63, 1-[2-(4-dimethylamino-phenyl)-azepan-1-yl]-2-[1-(naphthyl-1-sulfonyl)-piperidin-2-ylmethoxy]-ethanone] | – | – | 58.57 | 26.41
3 | CN1CCN(C2CCN(C(=O)COCC3CCCCN3S(=O)(=O)c3cccc4ccccc34)CC2)CC1 (stereo not drawn) [Example 230, 1-(4-(4-methylpiperazin-1-yl)piperidin-1-yl)-2-((1-(naphthen-1-ylsulfonyl)piperidin-2-yl)methoxy)ethanone] | – | – | 95.42 | 62.33
4 | Cc1cc(C)c(S(=O)(=O)N2CCCCC2COCC(=O)N2CCCC2Cc2ccccn2)c(C)c1 (stereo not drawn) [Example 226, 2-((1-(mesitylsulfonyl)piperidin-2-yl)methoxy)-1-(2-(pyridin-2-ylmethyl)pyrrolidin-1-yl)ethanone] | 76.4 | 96.9 | – | –
5 | COc1cc(C)c(S(=O)(=O)N2Cc3ccccc3CC2COCC(=O)N2CCCCC2Cc2cccc(C)n2)c(C)c1C (stereo not drawn) [Example 277, 2-((2-(4-methoxy-2,3,6-trimethylphenylsulfonyl)-1,2,3,4-tetrahydroisoquinolin-3-yl)methoxy)-1-(2-((6-methylpyridin-2-yl)methyl)piperidin-1-yl)ethanone] | 85.5 | 81.6 | – | –
6 | COc1cc(C)c(S(=O)(=O)N2CCCC2COCC(=O)NCCCN2CCN(Cc3ccccc3)CC2)c(C)c1 (stereo not drawn) [Example 521, N-(3-(4-benzylpiperazin-1-yl)propyl)-2-((1-(4-methoxy-2,6-dimethylphenylsulfonyl)pyrrolidin-2-yl)methoxy)acetamide] | 85.2 | 99.3 | – | –
7 | O=C(COCC1CCCN1S(=O)(=O)c1c(Cl)cccc1Cl)N1CCN(c2cccc(Cl)c2)CC1 (stereo not drawn) [Example 354, 1-(4-(3-chlorophenyl)piperazin-1-yl)-2-((1-(2,6-dichlorophenylsulfonyl)pyrrolidin-2-yl)methoxy)ethanone] | 62.5 | 102 | – | –
8 | Cc1cc(C)c(S(=O)(=O)N2CCCCC2COCC(=O)N2CCN(c3nc(Cc4ccccc4)cs3)CC2)c(C)c1 (stereo not drawn) [Example 234, 1-(4-(4-benzylthiazol-2-yl)piperazin-1-yl)-2-((1-(mesitylsulfonyl)piperidin-2-yl)methoxy)ethanone] | 52 | 103 | – | –
9 | CN1CCN(C2CCN(C(=O)COCC3CCCN3S(=O)(=O)c3c(Cl)cc(Cl)cc3Cl)CC2)CC1 (stereo not drawn) [Example 330, 1-(4-(4-methylpiperazin-1-yl)piperidin-1-yl)-2-((1-(2,4,6-trichlorophenylsulfonyl)pyrrolidin-2-yl)methoxy)ethanone] | 104 | 100 | – | –
10 | Cc1ccc2ccccc2c1S(=O)(=O)N1CCCCC1COCC(=O)N1CCN(C2CCN(C)CC2)CC1 (stereo not drawn) [Example 157, 2-((1-(2-methylnaphthalen-1-ylsulfonyl)piperidin-2-yl)methoxy)-1-(4-(1-methylpiperidin-4-yl)piperazin-1-yl)ethanone dihydrochloride] | 98.2 | 100 | – | –
11 | COc1cc(C)c(S(=O)(=O)N2CCCCC2COCC(=O)N2CCC(c3cccnc3)C2)c(C)c1 (stereo not drawn) [Example 237, 2-((1-(4-methoxy-2,6-dimethylphenylsulfonyl)piperidin-2-yl)methoxy)-1-(3-(pyridin-3-yl)pyrrolidin-1-yl)ethanone] | 99.7 | 99.5 | – | –
12 | COc1cc(C)c(S(=O)(=O)N2CCCC2COCC(=O)N(C)C(CN2CCOCC2)c2ccccc2)c(C)c1 (stereo not drawn) [Example 304, 2-((1-(4-methoxy-2,6-dimethylphenylsulfonyl)pyrrolidin-2-yl)methoxy)-N-methyl-N-(2-morpholino-1-phenylethyl)acetamide] | 71.1 | 102 | – | –
13 | CCN1CCN(c2ccc(NC(=O)COCC3CCCCN3S(=O)(=O)c3ccc(OC)cc3)cc2)CC1 (stereo not drawn) [Example 555, N-(4-(4-ethylpiperazin-1-yl)phenyl)-2-((1-(4-methoxyphenylsulfonyl)piperidin-2-yl)methoxy)acetamide] | 62.5 | 102 | – | –
14 | O=C(COCC1CCCN1S(=O)(=O)c1c(Cl)cccc1Cl)N1CCN(CCc2ccccc2)CC1 (stereo not drawn) [Example 326, 2-((1-(2,6-dichlorophenylsulfonyl)pyrrolidin-2-yl)methoxy)-1-(4-phenethylpiperazin-1-yl)ethanone] | 104 | 101 | – | –
15 | O=C(COCC1CCCCN1S(=O)(=O)c1c(Cl)cc(Cl)cc1Cl)NCc1ccc(CN2CCOCC2)cc1 (stereo not drawn) [Example 30, N-(4-morpholin-4-ylmethyl-benzyl)-2-[1-(2,4,6-trichloro-phenylsulfonyl)-piperidin-2-ylmethoxy]-acetamide] | 84 | 108 | – | –
16 | CCOCCN1CCN(C(=O)COCC2Cc3ccccc3CN2S(=O)(=O)c2c(C)cc(C)cc2C)CC1 (stereo not drawn) [Example 245, 1-(4-(2-ethoxyethyl)piperazin-1-yl)-2-((2-(mesitylsulfonyl)-1,2,3,4-tetrahydroisoquinolin-3-yl)methoxy)ethanone] | 69.9 | 80.5 | – | –
17 | O=C(COCC1CCCCN1S(=O)(=O)c1c(Cl)cc(Cl)cc1Cl)NCCN1CCCC1 (stereo not drawn) [Example 459, N-(2-(pyrrolidin-1-yl)ethyl)-2-((1-(2,4,6-trichlorophenylsulfonyl)piperidin-2-yl)methoxy)acetamide] | 57.1 | 102 | – | –
18 | CN1CCC(N2CCN(C(=O)COCC3Cc4ccccc4CN3S(=O)(=O)c3ccc4ccccc4c3)CC2)CC1 (stereo not drawn) [Example 178, 1-(4-(1-methylpiperidin-4-yl)piperazin-1-yl)-2-((2-(naphthalen-2-ylsulfonyl)-1,2,3,4-tetrahydroisoquinolin-3-yl)methoxy)ethanone dihydrochloride] | 102 | 99.8 | – | –
19 | COc1ccc(S(=O)(=O)N2CCCCC2COCC(=O)N2CCN(c3nc(CCc4ccccc4)cs3)CC2)cc1 (stereo not drawn) [Example 220, 2-((1-(4-methoxyphenylsulfonyl)piperidin-2-yl)methoxy)-1-(4-(4-phenethylthiazol-2-yl)piperazin-1-yl)ethanone] | 15.3 | 86.3 | – | –
20 | COc1ccc(S(=O)(=O)N2c3ccccc3CCC2COCC(=O)N2CCN(C3CCN(C)CC3)CC2)cc1 (stereo not drawn) [Example 204, 2-((1-(4-methoxyphenylsulfonyl)-1,2,3,4-tetrahydroquinolin-2-yl)methoxy)-1-(4-(1-methylpiperidin-4-yl)piperazin-1-yl)ethanone] | 105 | 99 | – | –
21 | CN(C)c1ccc(C2CCCN2C(=O)COCC2CCCCN2S(=O)(=O)c2c(Cl)cccc2Cl)cc1 (stereo not drawn) [Example 528, 2-((1-(2,6-dichlorophenylsulfonyl)piperidin-2-yl)methoxy)-1-(2-(4-(dimethylamino)phenyl)pyrrolidin-1-yl)ethanone] | 88.2 | 102 | – | –
22 | COc1cc(C)c(S(=O)(=O)N2CCCC2COCC(=O)N2CCN(c3ccccc3OC)CC2)c(C)c1 (stereo not drawn) [Example 491, 2-((1-(4-methoxy-2,6-dimethylphenylsulfonyl)pyrrolidin-2-yl)methoxy)-1-(4-(2-methoxyphenyl)piperazin-1-yl)ethanone] | 96.3 | 97.9 | – | –
23 | COc1cccc(N2CCN(C(=O)COCC3CCCCN3S(=O)(=O)c3c(Cl)cccc3Cl)CC2)c1 (stereo not drawn) [Example 317, 2-((1-(2,6-dichlorophenylsulfonyl)piperidin-2-yl)methoxy)-1-(4-(3-methoxyphenyl)piperazin-1-yl)ethanone] | 92.2 | 100 | – | –
24 | O=C(COCC1CCCCN1S(=O)(=O)c1c(Cl)cc(Cl)cc1Cl)NCC(c1cccnc1)N1CCOCC1 (stereo not drawn) [Example 256, N-(2-morpholino-2-(pyridin-3-yl)ethyl)-2-((1-(2,4,6-trichlorophenylsulfonyl)piperidin-2-yl)methoxy)acetamide] | 50.2 | 91 | – | –
